In patent publication US20150105252A1, “SUBSTITUTED PYRAZOLES AS HERBICIDES” (E I DU PONT DE NEMOURS AND COMPANY, priority 2013, published 2015):

How the values were obtained:
[1] = test system: morningglory; test: Test A preemergence; format: in vivo, Ipomoea spp.; conditions: 0 to 100 scale
Outline: (§1)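 Visual injury ratings, 0 = no effect to 100 = complete control, taken about 10 days after treatment against untreated controls. Test chemicals, in a non-phytotoxic surfactant-containing solvent, were sprayed onto soil preemergence or onto one- to two-leaf plants (2–10 cm) postemergence, in loam–sand soil under greenhouse conditions.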

[2] = test system: corn; test: Test A preemergence; format: in vivo, Zea mays; conditions: 0 to 100 scale
Outline: as §1

[3] = test system: corn; test: Test C postemergence; format: in vivo, Zea mays; conditions: for Corn plant response rating: scale 0 to 100
From the text: (§2) Seeds of plant species selected from blackgrass (Alopecurus myosuroides), ryegrass, Italian (Italian ryegrass, Lolium multiflorum), wheat (winter wheat, Triticum aestivum), galium (catchweed bedstraw, Galium aparine), corn (Zea mays), crabgrass, large (large crabgrass, Digitaria sanguinalis), foxtail, giant (giant foxtail, Setaria faberii), johnsongrass (Sorghum halepense), lambsquarters (Chenopodium album), morningglory (Ipomoea coccinea), nutsedge, yellow (yellow nutsedge, Cyperus esculentus), pigweed (redroot pigweed, Amaranthus retroflexus), ragweed (common ragweed, Ambrosia elation), soybean (Glycine max), barnyardgrass (Echinochloa crus-galli), oilseed rape (Brassica napus), waterhemp (common waterhemp, Amaranthus rudis), oat, wild (wild oat, Avena fatua), kochia (Kochia scoparia), Surinam grass (Brachiaria decumbens), foxtail, green (green foxtail, Setaria viridis), goosegrass (Eleusine indica), bromegrass, downy (downy bromegrass, Bromus tectorum), nightshade (eastern black nightshade, Solanum ptycanthum), cocklebur (common cocklebur, Xanthium strumarium), cupgrass, woolly (woolly cupgrass, Eriochloa villosa), bermudagrass (Cynodon dactylon), sunflower, (common oilseed sunflower, Helianthus annuus), Russian thistle (Salsola kali), and velvetleaf (Abutilon theophrasti) were planted into a blend of loam soil and sand and treated preemergence with test chemicals formulated in a non-phytotoxic solvent mixture which included a surfactant.
(§3) At the same time, plants selected from these crop and weed species and also chickweed (common chickweed, Stellaria media), canarygrass (littleseed canarygrass, Phalaris minor), and deadnettle (henbit deadnettle, Lamium amplexicaule), were planted in pots containing Redi-Earth® planting medium (Scotts Company, 14111 Scottslawn Road, Marysville, Ohio 43041) comprising spaghnum peat moss, vermiculite, wetting agent and starter nutrients and treated with postemergence applications of test chemicals formulated in the same manner. Plants ranged in height from 2 to 18 cm (1- to 4-leaf stage) for postemergence treatments. Treated plants and controls were maintained in a greenhouse for 13 to 15 days, after which time all species were compared to controls and visually evaluated. Plant response ratings, summarized in Table C, are based on a scale of 0 to 100 where 0 is no effect and 100 is complete control. A dash (-) response means no test result.

[4] = test system: foxtail, giant; test: Test A postemergence; format: in vivo, Setaria faberii
Outline: as §1

[5] = test system: morningglory; test: Test C postemergence; format: in vivo, Ipomoea coccinea; conditions: for Morningglory plant response rating: scale 0 to 100
From the text: as §2, §3

[6] = test system: ragweed; test: Test C postemergence; format: in vivo, Ambrosia elation; conditions: postemergence; for Ragweed plant response rating: scale 0 to 100
From the text: as §2, §3

[7] = test system: crabgrass, large; test: Test A preemergence; format: in vivo, Digitaria sanguinalis; conditions: 0 to 100 scale
Outline: as §1

[8] = test system: pigweed; test: Test C postemergence; format: in vivo, Amaranthus retroflexus; conditions: for Pigweed plant response rating: scale 0 to 100
From the text: as §2, §3

[9] = test system: velvetleaf; test: Test A preemergence; format: in vivo, Abutilon theophrasti; conditions: 0 to 100 scale
Outline: as §1

[10] = test system: ryegrass, Italian; test: Test C preemergence; format: in vivo, Lolium multiflorum; conditions: for Plant response rating (scale of 0 to 100), Ryegrass, Italian: Preemergence, 250 g ai/ha; for Ryegrass, Italian plant response rating / Plant response rating, Ryegrass, Italian: preemergence; for Plant response rating, Ryegrass, Italian: 62 g ai/ha, scale 0 to 100, 0 = no effect, 100 = complete control
From the text: as §2, §3

[11] = test system: galium; test: Test C postemergence; format: in vivo, Galium aparine; conditions: for Galium plant response rating: scale 0 to 100
From the text: as §2, §3

[12] = test system: sedge, umbrella; test: Test B flood; format: in vivo, Cyperus difformis; conditions: 250 g ai/ha, visual rating on 0 to 100 scale (0 no effect, 100 complete control), 13 to 15 days
Outline: (§4)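 At two leaves, seedlings received the test compound via the paddy water, pots having been flooded 3 cm over the soil surface and kept so. Greenhouse-held for 13 to 15 days, then judged by eye against controls on a scale running 0 (no effect) to 100 (complete control).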

[13] = test system: ducksalad; test: Test B flood; format: in vivo, Heteranthera limosa; conditions: 250 g ai/ha, visual rating on 0 to 100 scale (0 no effect, 100 complete control), 13 to 15 days
Outline: as §4

[14] = Preemergence, 1000 g ai/ha, 0 no effect, 100 complete control
[15] = postemergence, 250 g ai/ha, scale 0 to 100 (0 no effect, 100 complete control)
[16] = postemergence, 62 g ai/ha, scale 0 to 100, 0 no effect, 100 complete control
[17] = postemergence, 125 g ai/ha, scale 0 to 100, 0 no effect, 100 complete control
[18] = Postemergence, 1000 g ai/ha, visual rating after approx. 10 days, 0 to 100 scale (0 no effect, 100 complete control)
[19] = 250 g ai/ha, scale 0 to 100 (0 no effect, 100 complete control)
[20] = 62 g ai/ha, scale 0 to 100, 0 no effect, 100 complete control
[21] = 125 g ai/ha, scale 0 to 100, 0 no effect, 100 complete control
[22] = Preemergence, 500 g ai/ha, 0 no effect, 100 complete control
[23] = preemergence, 125 g ai/ha, visual injury, approx. 10 days
[24] = 31 g ai/ha, scale 0 to 100 (0 no effect, 100 complete control), 13 to 15 days
[25] = 125 g ai/ha, scale 0 to 100, 0 is no effect, 100 is complete control
[26] = Postemergence, 500 g ai/ha, visual rating after approx. 10 days, 0 to 100 scale (0 no effect, 100 complete control)
[27] = postemergence, 125 g ai/ha, about 10 days, visual rating on 0 to 100 scale (0 no effect, 100 complete control)

Compound: CCc1cc(C(=O)NCC(F)(F)F)nn1Cc1cccc(OC(F)(F)F)c1 [Compound 20]
- Morningglory plant response rating [1, 14]: 70
- Corn plant response rating [2, 14]: 20
- Corn plant response rating ([3]; Postemergence, 31 g ai/ha): 15
- Plant response rating, Corn [3, 15]: 25
- Plant response rating, Corn [3, 16]: 20
- Plant response rating, Corn [3, 17]: 20
- Foxtail, Giant plant response rating [4, 18]: 70
- Morningglory plant response rating ([5]; Postemergence, 31 g ai/ha): 10
- Plant response rating, Morningglory [5, 15]: 70
- Plant response rating, Morningglory [5, 16]: 25
- Plant response rating, Morningglory [5, 17]: 60
- Plant response rating, Ragweed [6, 19]: 25
- Plant response rating, Ragweed [6, 20]: 15
- Plant response rating, Ragweed [6, 21]: 15
- Crabgrass, Large plant response rating [7, 14]: 90
- Pigweed plant response rating ([8]; Postemergence, 31 g ai/ha): 60
- Plant response rating, Pigweed [8, 15]: 80
- Plant response rating, Pigweed [8, 16]: 75
- Plant response rating, Pigweed [8, 17]: 75
- Velvetleaf plant response rating [9, 14]: 70

Compound: CCCNC(=O)c1cc(CC)n(Cc2cccc(OC(F)(F)F)c2)n1 [Compound 27]
- Morningglory plant response rating [1, 14]: 90
- Corn plant response rating [2, 14]: 30
- Corn plant response rating ([3]; Postemergence, 31 g ai/ha): 10
- Plant response rating, Corn [3, 15]: 15
- Plant response rating, Corn [3, 16]: 10
- Plant response rating, Corn [3, 17]: 15
- Foxtail, Giant plant response rating [4, 18]: 70
- Morningglory plant response rating ([5]; Postemergence, 31 g ai/ha): 5
- Plant response rating, Morningglory [5, 15]: 75
- Plant response rating, Morningglory [5, 16]: 60
- Plant response rating, Morningglory [5, 17]: 60
- Plant response rating, Ragweed [6, 19]: 10
- Plant response rating, Ragweed [6, 20]: 0
- Plant response rating, Ragweed [6, 21]: 5
- Crabgrass, Large plant response rating [7, 14]: 100
- Pigweed plant response rating ([8]; Postemergence, 31 g ai/ha): 40
- Plant response rating, Pigweed [8, 15]: 50
- Plant response rating, Pigweed [8, 16]: 40
- Plant response rating, Pigweed [8, 17]: 40
- Velvetleaf plant response rating [9, 14]: 30

Compound: CCc1cc(C(=O)NOC(C)C)nn1Cc1cccc(OC(F)(F)F)c1 [Compound 70]
- Morningglory plant response rating [1, 22]: 100
- Morningglory plant response rating [1, 23]: 80
- Plant response rating (scale of 0 to 100), Ryegrass, Italian [10]: 80
- Ryegrass, Italian plant response rating [10, 24]: 20
- Plant response rating, Ryegrass, Italian ([10]; 13 to 15 days): 30
- Ryegrass, Italian plant response rating [10, 25]: 60
- Corn plant response rating [2, 22]: 80
- Corn plant response rating [2, 23]: 50
- Corn plant response rating ([3]; Postemergence, 31 g ai/ha): 10
- Plant response rating, Corn [3, 15]: 50
- Plant response rating, Corn [3, 16]: 40
- Plant response rating, Corn [3, 17]: 45
- Foxtail, Giant plant response rating [4, 26]: 90
- Foxtail, Giant plant response rating [4, 27]: 90
- Galium plant response rating ([11]; Postemergence, 31 g ai/ha): 70
- Plant response rating, Galium [11, 15]: 90
- Plant response rating, Galium [11, 16]: 70
- Plant response rating, Galium [11, 17]: 75
- Morningglory plant response rating ([5]; Postemergence, 31 g ai/ha): 5
- Plant response rating, Morningglory [5, 15]: 85
- Plant response rating, Morningglory [5, 16]: 45
- Plant response rating, Morningglory [5, 17]: 75
- Plant response rating, Ragweed [6, 19]: 65
- Plant response rating, Ragweed [6, 20]: 60
- Plant response rating, Ragweed [6, 21]: 65
- Crabgrass, Large plant response rating [7, 22]: 100
- Crabgrass, Large plant response rating [7, 23]: 100
- Pigweed plant response rating ([8]; Postemergence, 31 g ai/ha): 60
- Plant response rating, Pigweed [8, 15]: 75
- Plant response rating, Pigweed [8, 16]: 65
- Plant response rating, Pigweed [8, 17]: 70
- Velvetleaf plant response rating [9, 22]: 80
- Velvetleaf plant response rating [9, 23]: 40

Compound: CCONC(=O)c1cc(CC)n(Cc2cccc(OC(F)(F)F)c2)n1 [Compound 72]
- Morningglory plant response rating [1, 22]: 90
- Morningglory plant response rating [1, 23]: 60
- Plant response rating (scale of 0 to 100), Ryegrass, Italian [10]: 95
- Ryegrass, Italian plant response rating [10, 24]: 40
- Plant response rating, Ryegrass, Italian ([10]; 13 to 15 days): 85
- Ryegrass, Italian plant response rating [10, 25]: 85
- Corn plant response rating [2, 22]: 70
- Corn plant response rating [2, 23]: 50
- Corn plant response rating ([3]; Postemergence, 31 g ai/ha): 10
- Corn plant response rating ([3]; postemergence, 62 g ai/ha): 10
- Plant response rating, Corn [3, 15]: 60
- Plant response rating, Corn [3, 17]: 10
- Foxtail, Giant plant response rating [4, 26]: 90
- Foxtail, Giant plant response rating [4, 27]: 80
- Galium plant response rating ([11]; Postemergence, 31 g ai/ha): 45
- Galium plant response rating ([11]; postemergence, 62 g ai/ha): 70
- Plant response rating, Galium [11, 15]: 80
- Plant response rating, Galium [11, 17]: 70
- Morningglory plant response rating ([5]; Postemergence, 31 g ai/ha): 0
- Morningglory plant response rating ([5]; postemergence, 62 g ai/ha): 35
- Plant response rating, Morningglory [5, 15]: 65
- Plant response rating, Morningglory [5, 17]: 60
- Ragweed plant response rating ([6]; 62 g ai/ha): 5
- Plant response rating, Ragweed [6, 19]: 35
- Plant response rating, Ragweed [6, 21]: 20
- Crabgrass, Large plant response rating [7, 22]: 100
- Crabgrass, Large plant response rating [7, 23]: 90
- Pigweed plant response rating ([8]; Postemergence, 31 g ai/ha): 45
- Pigweed plant response rating ([8]; postemergence, 62 g ai/ha): 45
- Plant response rating, Pigweed [8, 15]: 65
- Plant response rating, Pigweed [8, 17]: 65
- Velvetleaf plant response rating [9, 22]: 100
- Velvetleaf plant response rating [9, 23]: 70

Compound: Cc1cc(C(=O)NCC(F)(F)F)nn1Cc1ccnc(C(F)(F)F)c1 [Compound 74]
- Plant response rating, Sedge, Umbrella [12]: 65
- Morningglory plant response rating [1, 14]: 100
- Plant response rating (scale of 0 to 100), Ryegrass, Italian [10]: 80
- Ryegrass, Italian plant response rating [10, 24]: 5
- Plant response rating, Ryegrass, Italian ([10]; 13 to 15 days): 5
- Ryegrass, Italian plant response rating [10, 25]: 50
- Corn plant response rating [2, 14]: 90
- Corn plant response rating ([3]; Postemergence, 31 g ai/ha): 10
- Corn plant response rating ([3]; postemergence, 62 g ai/ha): 10
- Plant response rating, Corn [3, 15]: 55
- Plant response rating, Corn [3, 17]: 20
- Foxtail, Giant plant response rating [4, 18]: 90
- Galium plant response rating ([11]; Postemergence, 31 g ai/ha): 60
- Galium plant response rating ([11]; postemergence, 62 g ai/ha): 60
- Plant response rating, Galium [11, 15]: 85
- Plant response rating, Galium [11, 17]: 80
- Morningglory plant response rating ([5]; Postemergence, 31 g ai/ha): 70
- Morningglory plant response rating ([5]; postemergence, 62 g ai/ha): 75
- Plant response rating, Morningglory [5, 15]: 80
- Plant response rating, Morningglory [5, 17]: 75
- Ragweed plant response rating ([6]; 62 g ai/ha): 45
- Plant response rating, Ragweed [6, 19]: 70
- Crabgrass, Large plant response rating [7, 14]: 100
- Plant response rating, Ducksalad [13]: 75
- Pigweed plant response rating ([8]; Postemergence, 31 g ai/ha): 60
- Pigweed plant response rating ([8]; postemergence, 62 g ai/ha): 65
- Plant response rating, Pigweed [8, 15]: 80
- Plant response rating, Pigweed [8, 17]: 80
- Velvetleaf plant response rating [9, 14]: 100
